According to US7531575B2, “Method of modulating cellular activity and agents useful for same” (Eberhard-Karls-Universität Tübingin, priority 2002, dated 2009):

Experiments:
Assay type in all cases: cell-based, murine
iNOS = iNOS protein immunoblot, IFN-γ-stimulated N9 microglia; settings: N9 cells, IFN-γ 200 u ml, 24 h, tranilast 300 μM
Description: Tranilast was a generous gift of Kissei Pharmaceuticals (Nagano, Japan). Murine recombinant IFN-γ was purchased from Boehringer (Mannheim, Germany). Dexamethasone (DEX) was obtained from Sigma (Deisenhofen, Germany). N9 murine microglial cells were a kind gift from P. Ricciardi-Castagnoli (Milano, Italy) (Righi, M., Mori, L., De Libero, G., Sironi, M., Biondi, A., Mantovani, A., Donini, S. D. and Ricciardi-Castagnoli, P. Eur J Immunol 19(8):1443-1448, 1989). The cells were cultured in Dulbecco's modified Eagle's medium (DMEM) supplemented with 10% foetal calf serum (FCS), 2 mM glutamine and penicillin ([…])/streptomycin (100 μg ml), and maintained at 37° C. in an atmosphere of 5% CO2. Viability was assessed by crystal violet staining.
For the preparation of whole cell lysates, the cells were rinsed in phosphate-buffered saline (PBS), harvested, centrifuged at 1200×g, lysed in 0.1 M TRIS-HCl (pH 7.2) containing 0.1% NP40, 0.1 mM EDTA and 5 μg ml PMSF for 40 min on ice, and centrifuged at 10,000×g for 10 min. Protein concentration was determined using Biorad reagents with photometric analysis. Proteins (20 μg lane) were separated by 10-12% SDS-PAGE and electroblotted on nitrocellulose. qual protein loading was controlled by Ponceau S staining. […]

NF-κB [1] = assay: NF-κB reporter assay, IFN-γ-stimulated N9 microglia; settings: N9 cells, IFN-γ 200 u ml, tranilast 30-300 μM, 4 h preincubation
Description: N9 murine microglial cells were seeded in a 96-well plate (8×10^3 well) and allowed to adhere for 24 h. The cells were transfected with an NK-κB cis-reporter gene plasmid (PathDetect* no. 219077, Stratagene) which encodes firefly luciferase in a NF-κB-dependent-manner. For each transfection, 0.2 μg DNA and 0.6 μl FuGene (Roche, Mannheim, Germany) were used. The cells were either co-transfected with 0.02 μg of the pFC-Mekk positive control plasmid, included in the NF-κB cis-reporting system from Stratagene, or with the pcDNA-3 plasmid, to maintain a constant amount of total DNA. In order to assess the unspecific background, a control transfection with pcDNA-3 only was included in all experiments. After 24 h the cells were washed twice with PBS (0.12 M NaCl, 0.01 M NaH2PO4×H2O, 0.031 M K2HPO4) and lysed using 40 μl well of Cell Lysis Buffer (mM):tricine pH 7.8 40, NaCl 50, EDTA 2, MgSO4 1, DTT 5, 1% Triton* X-100, all from Sigma. To optimize lysis, a freeze-thaw cycle was performed. Then the lysate was transferred to a LumiNunc™ plate (Nunc, Roskilde, Denmark). Luciferase assay reagent (100 μl) containing (mM): tricine pH 7.8 40, MgSO4 10, EDTA 0.5, DTT 10, coenzyme A 0.5 and beetle luciferin 0.5, ([…]), (all from Sigma) were added and luminescence was measured in a LumimatPlus (EG&G Berthold, Pforzheim, Germany). […]

NF-κB [2] = assay: NF-κB reporter assay, LPS-stimulated N9 microglia; settings: N9 cells, LPS 10 μg/mL 4 hr, TNL pre-incubation 1 hr
Description: NF-κB reporter gene activity was assayed as previously described (Platten, M. et al. 2001 supra). Briefly, 8×10^3 cells/well were seeded in a 96-well plate and transfected with an NF-κB cis reporter gene plasmid (PathDetect No. 219077, Stratagene) encoding firefly luciferase using FuGene™ transfection reagent (Roche). pFC-MEKK (Stratagene) and pcDNA3 plasmids cotransfected with the reporter plasmid served as positive and negative controls. After freezing and thawing, the cells were lysed in 40 mM Tricine (pH 7.8) containing 50 mM NaCl, 2 mM EDTA, 1 mM MgSO4, 5 mM DTT and 1% Triton X-100. Lysates were assayed using Luciferase assay reagent (40 mM Tricine, pH 7.8, containing 10 mM MgSO4, 0.5 mM EDTA, 10 mM DTT, 0.5 mM coenzyme A, […] and 0.5 mM beetle luciferine). Luminescence was measured in LumiNunc™ plates (Nunc) in a LumimatPlus™ (EG&G Berthold). Values are expressed as relative light units (RLU).

MARCKS = assay: phospho-MARCKS immunoblot in N9 microglia; settings: N9 cells, co-exposed to TNL (pre-incubation 1 hr)
Excerpt: TNL was a generous gift of Kissei Pharmaceuticals, LPC (Escherichia coli, 0127:BS), phorbol 12-myristate 13-acetate (PMA) and dexamethasone (DEX) were obtained from Sigma, BAY 11-7082 (BAY), NF-κB SN50 inhibitory peptide (SN50), GF 109203X (GFX) and rottlerin (ROT) were purchased from Biomol. PD098059 (PD) was obtained from Calbiochem. Purified murine interferon-γ (IFN-γ) was purchased from Roche Diagnostics. N9 murine microglial cells were a kind gift from P. Ricciardi-Castagnoli (Righi, M. et al. 1989 supra). Cells were cultured in Dulbecco's modified Eagle's medium (DMEM) supplemented with 10% fetal calf serum (FCS), 2 mM glutamine, penicillin (100 unit/mL) and streptomycin (100 μg/mL) and maintained at 37° in an atmosphere of 5% CO2. Viability was assessed by crystal violet staining.
For the preparation of whole cell lysates, the cells were lysed in 0.1 M Tris-HCl (pH 7.2) containing 0.1% NP40, 0.1 mM EDTA and 5 μg/mL phenylmethylsulphonyl fluoride. Twenty micrograms protein was separated by 10-12% SDS-PAGE and electroblotted on nitrocellulose membrane. Equal loading was controlled by Ponceau S staining. […]

Q: `COc1ccc(/C=C/C(=O)Nc2ccccc2C(=O)O)cc1OC` [tranilast, 2-[[3-(3,4-dimethoxyphenyl)-1-oxo-2-propenyl]amino]benzoic acid] was tested. Which “IFN-γ-induced iNOS protein expression” value (iNOS) did it give?
A: Its value is “greatly suppressed”.

Q: And the “NF-κB reporter gene activity in response to IFN-γ” value (NF-κB [1])?
A: Its value is “concentration-dependent suppression”.

Q: What about the “LPS-mediated NF-κB reporter gene activity” value (NF-κB [2]) of the same compound?
A: The value was “did not suppress”.

Q: And the MARCKS phosphorylation (MARCKS)?
A: Its MARCKS phosphorylation is “inhibited”.
